Experimental data from US8124634B2, “CB1 receptor modulators” (7TM Pharma A/S, priority 2006, dated 2012).
pIC50: −log10 of the molar value.

Target: T1, human CB1 receptor (Homo sapiens, UniProt P21554)
T1 construct: expressed in transfected cells; membranes
Assay: Cannabinoid Receptor-1 functional assay: inhibition of CP55940-induced [35S]GTPγS binding to membranes of CHO-K1 cells expressing human CB1
Format: biochemical
Settings: 3 nM CP55940, hCB1 membranes, [35S]GTPγS SPA; read-out: IC50 value for antagonizing a CB1 receptor agonist
Excerpt: Transfection and Cell Culture—The cDNA encoding the human CB1 (Cannabinoid Receptor-1) receptor (GenBank accession number NM_016083) was cloned from a human adipose tissue cDNA library and cloned into the eukaryotic expression vector pcDNA3.1 (Invitrogen).
Chinese Hamster Ovary cells (CHO-K1) stably expressing recombinant human CB1 were generated by transfecting the plasmid containing the coding sequence of the human CB1 receptor in CHO-K1 cells, using lipofectamin, according to the manufacturer instructions. Resistant clones were selected in the presence of 600 μg/ml G418 (Life technology). Stably transfected CHO-K1 cells were maintained in Ham's F-12 culture medium (Invitrogen), supplemented with 10% fetal calf serum (Invitrogen), 100 U/ml penicillin, 100 μg/ml streptomycin (Life Technology), and 600 μg/ml G418.
Cannabinoid Receptor-1 Functional Assay.
Functional activities of the above examples of compounds of the invention were assessed in vitro by measuring their ability to inhibit CP55940-induced [^35S]GTPγS binding to membranes prepared from CHO-K1 cells expressing the human CB1 receptor (described in Transfection and Cell Culture). CP55940 is a well known non-selective CB1 and CB2 receptor agonist (e.g Felder et al., 1995, Molecular Pharmacology, (48) 443-50). Membranes were prepared by a standard procedure. Briefly, cells were harvested using 10 mM EDTA and collected by centrifugation. Pelleted cells were homogenized in ice-cold 20 mM Hepes (pH 7.4),10 mM EDTA and protease inhibitors (Complete protease inhibitor cocktail tablet, Roche) using an Ultra Turrax Homogenizer. The homogenate was centrifuged at 14 000 rpm for 45 min. at 4° C. The resultant pellet was resuspended in the same buffer but with only 0.1 mM EDTA and was again centrifuged at 14 000 rpm for 45 min. at 4° C. The resulting pellet (membranes) was resuspended in 20 mM Hepes (pH 7.4), 0.1 mM EDTA, 2 mM MgCl2 and protease inhibitors and protein concentration was determined by Micro BCA Protein Assay Reagent Kit (Pierce Biotechnology) according to the manufacturer instructions. The [^35S]GYPγS SPA (Scintillation Proximity Assay) binding assay was performed by incubating 5 μg/well hCB1-membranes with 1 nM [^35S]GYPγS (Perkin Elmer—NEG 030H) in the presence of 3 nM of CP55940 and various concentrations of the test compounds at room temperature for 1 hr in 96-well microtiter plates. 0.4 mg/well SPA beads (PVT-WGA; RPNQ0001 Amersham Pharmacia Biotech) were then added and the incubation continued for further 30 min. on an orbital shaker. The assay buffer contained 50 mM HEPES (pH 7.5), 50 mM NaCl, 2.5 mM MgCl2, 0.1% BSA, 1 μM GDP and 100 μg/ml Saponin. Microtiter plates were centrifuged at 1500 rpm for 5 min. and radioactivity was read immediately using a Topcounter (PerkinElmer Life Sciences). Data were analyzed and IC50 values determined by non-linear regression using the Prism software (GraphPad Software, San Diego).

T1 sequence (P21554 whole entry): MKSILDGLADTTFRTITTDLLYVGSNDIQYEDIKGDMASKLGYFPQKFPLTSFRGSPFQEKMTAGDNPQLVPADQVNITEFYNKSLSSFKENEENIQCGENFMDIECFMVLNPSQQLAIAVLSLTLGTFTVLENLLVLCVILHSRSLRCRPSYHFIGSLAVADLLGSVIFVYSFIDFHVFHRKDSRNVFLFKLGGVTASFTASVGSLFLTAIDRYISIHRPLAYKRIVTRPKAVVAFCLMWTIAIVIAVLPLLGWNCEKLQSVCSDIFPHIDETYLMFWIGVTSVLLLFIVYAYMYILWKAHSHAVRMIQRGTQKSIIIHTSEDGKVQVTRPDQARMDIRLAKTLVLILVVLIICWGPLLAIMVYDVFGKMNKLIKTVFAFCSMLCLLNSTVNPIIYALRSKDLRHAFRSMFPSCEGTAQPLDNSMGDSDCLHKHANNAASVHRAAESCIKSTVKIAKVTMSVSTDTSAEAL

pIC50 | SMILES
> 6.52 | C[C@@H](NC(=O)c1nn(-c2ccccc2Cl)c(-c2ccc(Cl)cc2)c1CC(=O)O)c1ccc(C(F)(F)F)cc1 [[1.5], {1-(2-Chloro-phenyl)-5-(4-chloro-phenyl)-3-[(R)-1-(4-trifluoromethyl-phenyl)-ethylcarbamoyl]-1H-pyrazol-4-yl}-acetic acid]
> 6.52 | CC(C(=O)O)c1c(C(=O)N(C)[C@H](C)c2ccc(C(F)(F)F)cc2)nn(-c2ccccc2Cl)c1-c1ccc(Cl)cc1 (stereo partly drawn) [Compound [1.11], 2-{1-(2-Chloro-phenyl)-5-(4-chloro-phenyl)-3-{methyl-[(R)-1-(4-trifluoromethyl-phenyl)-ethyl]-carbamoyl}-1H-pyrazol-4-yl}-propionic acid]
> 6.52 | CC(NC(=O)c1nn(-c2ccccc2Cl)c(-c2ccc(Cl)cc2)c1Cc1nnn[nH]1)c1cc(F)cc(F)c1 (stereo not drawn) [[2.18], 1-(2-Chloro-phenyl)-5-(4-chloro-phenyl)-4-(1H-tetrazol-5-ylmethyl)-1H-pyrazole-3-carboxylic acid [1-(3,5-difluoro-phenyl)-ethyl]-amide]
> 6.52 | CCC(NC(=O)c1nn(-c2ccccc2Cl)c(-c2ccc(Cl)cc2)c1Cc1nnn[nH]1)c1ccc(C(F)(F)F)cc1 (stereo not drawn) [[2.15], 1-(2-Chloro-phenyl)-5-(4-chloro-phenyl)-4-(1H-tetrazol-5-ylmethyl)-1H-pyrazole-3-carboxylic acid [1-(4-trifluoromethyl-phenyl)propyl]-amide]
> 6.52 | CC(NC(=O)c1nn(-c2ccccc2Cl)c(-c2ccc(Cl)cc2)c1Cc1nn[nH]n1)c1ccc(Cl)c(F)c1 (stereo not drawn) [[2.19], 5-(4-Chloro-phenyl)-1-(2-chloro-phenyl)-4-(2H-tetrazol-5-ylmethyl)-1H-pyrazole-3-carboxylic acid [1-(4-chloro-3-fluoro-phenyl)-ethyl]-amide]
> 6.52 | CC(C)(Cc1ccc(F)cc1)NC(=O)c1nn(-c2ccccc2Cl)c(-c2ccc(Cl)cc2)c1Cc1nn[nH]n1 [[2.5], 5-(4-Chloro-phenyl)-1-(2-chloro-phenyl)-4-(2H-tetrazol-5-ylmethyl)-1H-pyrazole-3-carboxylic acid [2-(4-fluoro-phenyl)-1,1-dimethyl-ethyl]-amide]
